Data taken from PubChem BioAssay AID248 (DTP/NCI, 2004).
Values joined by “and” are separate entries in the source; they are usually repeats but may differ in a detail not shown here. Equal entries are not always repeated. Toxic doses and inconclusive results are not listed. No stated cut-off is given here; in the data, active means T/C of 150% or more; inactive means T/C below 125%.

Test system: L1210 leukemia ip in BDF1 mice, survival T/C
Test: NCI In Vivo Anticancer Drug Screen. Data for tumor model L1210 Leukemia (intraperitoneal) in B6D2F1 (BDF1) mice
Details: endpoint: mean survival time, higher = longer survival
Outline: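 Ratio derived from survival: compound-dosed mice over vehicle-dosed mice, all bearing a transplantable tumor.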

[1] = dose: 100.0 mg/kg/injection, schedule: Q04DX003 (ip), vehicle: Klucel (hydroxypropylcellulose) (HPC)
[2] = dose: 200.0 mg/kg/injection, schedule: Q04DX003 (ip), vehicle: Klucel (hydroxypropylcellulose) (HPC)
[3] = dose: 400.0 mg/kg/injection, schedule: Q04DX003 (ip), vehicle: Klucel (hydroxypropylcellulose) (HPC)
[4] = dose: 100.0 mg/kg/injection, schedule: Q04DX003 (ip), vehicle: saline
[5] = dose: 200.0 mg/kg/injection, schedule: Q04DX003 (ip), vehicle: saline
[6] = dose: 400.0 mg/kg/injection, schedule: Q04DX003 (ip), vehicle: saline
[7] = dose: 10.0 mg/kg/injection, schedule: Q01DX001 (ip), vehicle: saline
[8] = dose: 100.0 mg/kg/injection, schedule: Q01DX009 (ip), vehicle: saline with Tween-80
[9] = dose: 200.0 mg/kg/injection, schedule: Q01DX009 (ip), vehicle: saline with Tween-80
[10] = dose: 400.0 mg/kg/injection, schedule: Q01DX009 (ip), vehicle: saline with Tween-80

Measured: T/C

N#CSc1ncnc2nc[nH]c12
inactive: dose: 3.5 mg/kg/injection, schedule: Q01DX Z (ip), vehicle: water 104 % of control | dose: 5.3 mg/kg/injection, schedule: Q01DX Z (ip), vehicle: water 104 % of control | dose: 6.0 mg/kg/injection, schedule: Q01DX Z (ip), vehicle: water 105 % of control | dose: 8.0 mg/kg/injection, schedule: Q01DX Z (ip), vehicle: water 107 % of control | dose: 8.8 mg/kg/injection, schedule: Q01DX Z (ip), vehicle: water 114 % of control | dose: 12.0 mg/kg/injection, schedule: Q01DX Z (ip), vehicle: water 105 % of control | dose: 13.3 mg/kg/injection, schedule: Q01DX Z (ip), vehicle: water 108 % of control | dose: 20.0 mg/kg/injection, schedule: Q01DX Z (ip), vehicle: water 122 % of control

CCCCN1C(=O)CC(C23C(=O)N(CCCC)C(=O)C2CCc2ncccc23)C1=O (stereo unspecified)
inactive: dose: 100.0 mg/kg/injection, schedule: Q01DX009 (ip), vehicle: Klucel (hydroxypropylcellulose) (HPC) 87 % of control | [1] 94 % of control | dose: 200.0 mg/kg/injection, schedule: Q01DX009 (ip), vehicle: Klucel (hydroxypropylcellulose) (HPC) 89 % of control | [2] 99 % of control | dose: 400.0 mg/kg/injection, schedule: Q01DX009 (ip), vehicle: Klucel (hydroxypropylcellulose) (HPC) 87 % of control | [3] 90 % of control

CCS(=O)(=O)/C=C/c1ccncc1
inactive: dose: 25.0 mg/kg/injection, schedule: Q04DX002 (ip), vehicle: saline 104 % of control | dose: 50.0 mg/kg/injection, schedule: Q04DX002 (ip), vehicle: saline 101 % of control | dose: 100.0 mg/kg/injection, schedule: Q04DX002 (ip), vehicle: saline 111 % of control and 113 % of control

CNC(=O)Oc1ccc([N+](=O)[O-])cc1
inactive: dose: 75.0 mg/kg/injection, schedule: Q01DX001 (ip), vehicle: other 101 % of control | dose: 150.0 mg/kg/injection, schedule: Q01DX001 (ip), vehicle: other 101 % of control | dose: 300.0 mg/kg/injection, schedule: Q01DX001 (ip), vehicle: other 104 % of control

CCCCCCCCCCCCCCCC[N+]1(C)CCSCC1
inactive: dose: 0.78 mg/kg/injection, schedule: Q01DX009 (ip), vehicle: saline 104 % of control | dose: 1.56 mg/kg/injection, schedule: Q01DX009 (ip), vehicle: saline 111 % of control | dose: 3.13 mg/kg/injection, schedule: Q01DX009 (ip), vehicle: saline 114 % of control | dose: 6.25 mg/kg/injection, schedule: Q01DX009 (ip), vehicle: saline 104 % of control

c1ccc(CC(Cc2ccccc2)c2nc3ccccc3s2)cc1
inactive: dose: 75.0 mg/kg/injection, schedule: Q01DX009 (ip), vehicle: saline 98 % of control | [4] 98 % of control | dose: 150.0 mg/kg/injection, schedule: Q01DX009 (ip), vehicle: saline 98 % of control | [5] 92 % of control | dose: 300.0 mg/kg/injection, schedule: Q01DX009 (ip), vehicle: saline 95 % of control | [6] 92 % of control

O=C(Nc1cccc(Cl)c1Cl)Oc1cccc2ccccc12
inactive: dose: 100.0 mg/kg/injection, schedule: Q04DX002 (ip), vehicle: Klucel (hydroxypropylcellulose) (HPC) 101 % of control | dose: 200.0 mg/kg/injection, schedule: Q04DX002 (ip), vehicle: Klucel (hydroxypropylcellulose) (HPC) 108 % of control | dose: 400.0 mg/kg/injection, schedule: Q04DX002 (ip), vehicle: Klucel (hydroxypropylcellulose) (HPC) 114 % of control

COC(=O)N1C=C2C(C)=CC1C(C#N)(C#N)C2(C#N)C#N (stereo unspecified)
inactive: [7] 105 % of control and 87 % of control | dose: 40.0 mg/kg/injection, schedule: Q01DX001 (ip), vehicle: saline 98 % of control

O=[N+]([O-])c1cccc(-c2ccccc2)c1Br
inactive: [8] 94 % of control | [1] 93 % of control | [9] 93 % of control | [2] 96 % of control | [10] 94 % of control | [3] 94 % of control

NC1CCC(C(=O)O)NC1 (stereo unspecified)
inactive: [4] 104 % of control | [5] 107 % of control | [6] 109 % of control

OC1CCCCCC2CC12 (stereo unspecified)
inactive: dose: 25.0 mg/kg/injection, schedule: Q01DX005 (ip), vehicle: saline with Tween-80 86 % of control | dose: 25.0 mg/kg/injection, schedule: Q01DX009 (ip), vehicle: saline with Tween-80 98 % of control | dose: 50.0 mg/kg/injection, schedule: Q01DX005 (ip), vehicle: saline with Tween-80 101 % of control | dose: 50.0 mg/kg/injection, schedule: Q01DX009 (ip), vehicle: saline with Tween-80 91 % of control | dose: 100.0 mg/kg/injection, schedule: Q01DX005 (ip), vehicle: saline with Tween-80 89 % of control and 90 % of control | [8] 91 % of control

Cc1ncc(CO)c(/C=N/N=C(N)N)c1O
inactive: dose: 30.0 mg/kg/injection, schedule: Q01DX Z (oral), vehicle: methylcellulose (MC) 92 % of control | dose: 120.0 mg/kg/injection, schedule: Q01DX Z (oral), vehicle: methylcellulose (MC) 94 % of control | dose: 240.0 mg/kg/injection, schedule: Q01DX Z (oral), vehicle: methylcellulose (MC) 103 % of control

COc1cc2c(cc1O)C(=O)CCC=C2
inactive: dose: 50.0 mg/kg/injection, schedule: Q01DX009 (ip), vehicle: other 102 % of control | dose: 100.0 mg/kg/injection, schedule: Q01DX009 (ip), vehicle: other 98 % of control | dose: 200.0 mg/kg/injection, schedule: Q01DX009 (ip), vehicle: other 94 % of control

CC(C)COC(=O)Nc1cccc(O)c1
inactive: [8] 91 % of control | [9] 90 % of control | [10] 94 % of control

CCOP(=O)(OCC)C1=C(P(=O)(OCC)OCC)C(F)(F)C(F)(F)C1(F)F
inactive: dose: 9.5 mg/kg/injection, schedule: Q01DX001 (ip), vehicle: other 100 % of control | dose: 19.0 mg/kg/injection, schedule: Q01DX001 (ip), vehicle: other 100 % of control | dose: 38.0 mg/kg/injection, schedule: Q01DX001 (ip), vehicle: other 97 % of control

BrCC(CCCc1ccccc1)CCc1ccccc1 (stereo unspecified)
inactive: dose: 100.0 mg/kg/injection, schedule: Q04DX002 (ip), vehicle: saline with Tween-80 93 % of control | dose: 200.0 mg/kg/injection, schedule: Q04DX002 (ip), vehicle: saline with Tween-80 90 % of control | dose: 400.0 mg/kg/injection, schedule: Q04DX002 (ip), vehicle: saline with Tween-80 101 % of control

COc1ccc2cc3[n+](cc2c1OC)CCc1cc2c(cc1-3)OCO2
inactive: dose: 3.12 mg/kg/injection, schedule: Q01DX009 (ip), vehicle: Klucel (hydroxypropylcellulose) (HPC) 110 % of control | dose: 5.0 mg/kg/injection, schedule: Q01DX001 (ip), vehicle: saline 103 % of control | dose: 6.25 mg/kg/injection, schedule: Q01DX009 (ip), vehicle: Klucel (hydroxypropylcellulose) (HPC) 117 % of control | [7] 109 % of control | dose: 12.0 mg/kg/injection, schedule: Q01DX Z (ip), vehicle: saline 114 % of control | dose: 12.5 mg/kg/injection, schedule: Q01DX009 (ip), vehicle: Klucel (hydroxypropylcellulose) (HPC) 101 % of control and 106 % of control | dose: 20.0 mg/kg/injection, schedule: Q01DX001 (ip), vehicle: saline 109 % of control

COc1ccc(/C=N/NC(=O)CNC(=O)c2ccc(Cl)c(Cl)c2)cc1
inactive: dose: 12.5 mg/kg/injection, schedule: Q01DX009 (ip), vehicle: saline with Tween-80 104 % of control

COc1cccc(OC)c1C1(O)c2c(OC)cccc2Oc2cccc(OC)c21
inactive: [8] 93 % of control | [9] 90 % of control | [10] 90 % of control
